In patent US20230285570A1, “THERAPEUTICALLY USEFUL CURE-PRO MOLECULES FOR E3 LIGASE MEDIATED DEGRADATION OF PROTEINS, AND METHODS OF MAKING AND USING THEM” (CORNELL UNIVERSITY, priority 2020, published 2023):
“Also recorded” adds a separate entry of the source.

Assays:
Assay type in all cases: cell-based
[1] = target: T1, BRD4 (Homo sapiens, UniProt O60885); test: CURE-PRO-mediated BRD4 degradation in HeLa cells, Western blot; set-up: endogenous in cells; host or cells: HeLa; details: 24 h; for BRD4 degradation: 10 μM each
Outline: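 HeLa cells (2.5×10^6) treated 24 h with DMSO-solubilized compounds, degrader pairs combined 1:1, at 1 nM-1 μM, 1-10 μM, 10 μM or 10 and 100 μM each depending on series. RIPA lysates (10-20 μg protein) run on SDS-PAGE and immunoblotted for BRD4 with ECL detection.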

[2] = target: T1, BRD4; test: CURE-PRO-mediated BRD4 degradation in HCT116 cells, WES (ProteinSimple); set-up: endogenous in cells; details: 1 μM-10 μM each
Description: All cell lines were purchased from ATCC or DSMZ and grown at 37° C. with 5% CO2. Human HeLa cells were cultured in complete growth medium (Dulbecco's modified Eagle's medium (DMEM) supplemented with 10% FBS); MCF7 cells were cultured in complete growth medium (Dulbecco's modified Eagle's medium (DMEM) supplemented with 10% FBS and 0.01 mg/ml human recombinant insulin (Sigma Aldrich); Namalwa and Ramos cells were cultured in complete growth medium (RPMI 1640 medium supplemented with 10% FBS); HCT116 and HT29 cells were cultured in complete growth medium (McCoy's 5a Medium supplemented with 10% FBS). For cellular degradation of BRD4 studies cells were seeded in a 12-well plate at 70-80% confluency, allowed to attach overnight, and incubated with the indicated compounds for the indicated time. When indicated, a 15-minute pretreatment with 10 μM pomalidomide, 10 μM VHL298, 10 μM Nutlin3a, 1 μM MG-132 or 1 μM Carfilzomib was performed before the addition of CURE-PROs. For washout studies, after CURE-PRO treatment, media was aspirated and incubated with complete medium for the indicated time before lysis.
WES Simple analysis was performed on WES system (ProteinSimple-Biotechne) according to the manufacturer's instructions. Total protein concentrations of cell lysates were determined by the Pierce BCA kit (Thermo Fisher). 3 μL of 0.3 μg/μL of the protein lysate was loaded onto a 12- to 230-kDa WES assay plate (ProteinSimple) where 300 nL sample was withdrawn through a capillary, subjected to electrophoretic separation of proteins by size, and followed by the simultaneous, HRP-based detection of proteins using the Anti-Rabbit Detection Module (Proteinsimple: #DM-001). The electropherograms were checked then the automatic peak detection was manually corrected if it was required.
(§1) HCT116 cells (3×10^6) were treated for 24 hours with the compounds solubilized in DMSO. Compounds were added at 1 μM-10 μM each. Standardized protein samples were electrophoresed and imaged as described in the WES ProteinSimple section above. FIGS. 59, 60, and 61 depict the concentration-dependence of CURE-PRO-mediated BRD4 degradation using MDM2 ligands.
as §1, with “62” for “59, 60,”, “63” for “61”
HCT116 cells (3×10^6) were treated for 24 hours with the compounds solubilized in DMSO. CURE-PRO monomers were added at 10 μM each and the proteasomal inhibitors at 1 μM. Standardized protein samples were electrophoresed and imaged as described in the WES ProteinSimple section above. FIG. 68 depicts the dependence of the proteasome for CURE-PRO-mediated BRD4 degradation.

[3] = target: T1, BRD4; test: Summary of BRD4 degradation by CURE-PRO pairs, estimated from Western Blot or WES; set-up: endogenous in cells; details: for Degradation of BRD4, combination with CRBN ligand 8047: Table 1, aryl-boronic acid BRD4 ligand + 8047; for Degradation of BRD4, combination with MDM2 ligand 8314: Table 2, aryl-boronic acid BRD4 ligand + 8314
Outline: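 Namalwa, Ramos, HeLa, MCF7, HT29 or HCT116 cells treated 24 h with compounds in DMSO; RIPA lysates analysed by Western blot (ECL) or capillary WES immunodetection. Check mark denotes 30% to 70% or higher protein degradation.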

[4] = tested on: MV-4-11 cells; test: CellTiter-Glo cell viability, MV-4-11 cells; details: for loss of cellular viability (toxicity) versus monomers alone: cotreated 1:1 with each of CRBN ligands 8046, 8047 and 8066, MV-4-11, 72 h, 10 nM-100 μM
Description: CellTiter-Glo® 2.0 Cell Viability Assay (Promega) was carried out following the manufacturer's recommendations. Cells were seeded at a density of 1000 cells/well in a white 96 well plates (Corning, #3917) in a total volume of 100 μl with respective monomers, combinations of BRD ligands together with E3 ligase ligands or vehicle control treatment. After a 72 h incubation, 100 ul of the CellTiter-Glo® substrate was added per well and luminescence was read on a Spectramax M5 (Molecular Devices). Dose-response curves were generated using Graphpad Prism software.
MV-4-11 cells (5×10^4) were treated for 24 hours with the sample compounds solubilized in DMSO. The compounds were added at 1 nM-100 μM each. Cellular viability was determined using the CellTiter-Glo® Luminescent Cell Viability Assay (Promega) described above. FIGS. 19-22 depict the CURE-PRO-mediated loss of cellular viability for BRD monomers (JQ1 derivatives comprising of catechol linkers), and CRBN ligand, 8049 (pomalidomide derivatives comprising boronic acid linkers) combined in a 1:1 ratio.
MV-4-11 cells (1×10^4) were treated for 72 hours with the compounds solubilized in DMSO. Compounds were added at 10 nM-100 μM each. Cellular viability was determined using the CellTiter-Glo® Luminescent Cell Viability Assay (Promega) described above. FIGS. 47-54 depict the CURE-PRO-mediated loss of cellular viability for BRD monomers (JQ1 derivatives comprising of boronic acid linkers), and CRBN ligands, 8046, 8047 and 8066 (pomalidomide derivatives comprising diol linkers) combined in a 1:1 ratio.

[5] = 1:1 with MDM2 ligand 8313, HCT116, 24 h
[6] = 1:1 with MDM2 ligand 8314, HCT116, 24 h

SMILES: CCNC(=O)C[C@@H]1N=C(c2ccc(Cl)cc2)c2cc(OCCNC(=O)c3cccc(B(O)O)c3)ccc2-n2c(C)nnc21 [BRD-E21, (3-((2-(((4S)-6-(4-chlorophenyl)-4-(2-(ethylamino)-2-oxoethyl)-1-methyl-4H-benzo[f][1,2,4]triazolo[4,3-a][1,4]diazepin-8-yl)oxy)ethyl)carbamoyl)phenyl)boronic acid]
- concentration from which BRD4 degradation is observed ([1]; 1:1 with CRBN ligand 8047, HeLa, 1 nM-1 μM each): ≥ 10 nM
- BRD4 expression ([1]; BRD monomer alone, HeLa, 1 nM-1 μM): no change in expression is observed
- BRD4 degradation [2, 5]: had no effect on BRD4 protein levels
- BRD4 degradation [2, 6]: caused partial loss of the BRD4 protein; also recorded: Degradation is observed
- Degradation of BRD4, combination with CRBN ligand 8047 [3]: √ (A black check mark indicates efficacy of 30% to 70% or higher protein degradation)
- Degradation of BRD4, combination with MDM2 ligand 8314 [3]: √ (A black check mark indicates efficacy of 30% to 70% or higher protein degradation)

SMILES: COc1ccc2c(c1)C(c1ccc(Cl)cc1)=N[C@@H](CC(=O)Nc1cccc(B(O)O)c1)c1nnc(C)n1-2 [BRD-E73, (3-(2-((4S)-6-(4-chlorophenyl)-8-methoxy-1-methyl-4H-benzo[f][1,2,4]triazolo[4,3-a][1,4]diazepin-4-yl)acetamido)phenyl)boronic acid]
- loss of cellular viability (toxicity) versus monomers alone [4]: reduced viability; also recorded: increased toxicity

SMILES: CCNC(=O)C[C@@H]1N=C(c2ccc(Cl)cc2)c2cc(Sc3ccc(B(O)O)cc3)ccc2-n2c(C)nnc21 [BRD-E75, (4-(((4S)-6-(4-chlorophenyl)-4-(2-(ethylamino)-2-oxoethyl)-1-methyl-4H-benzo[f][1,2,4]triazolo[4,3-a][1,4]diazepin-8-yl)thio)phenyl)boronic acid]
- loss of cellular viability (toxicity) versus monomers alone [4]: reduced viability; also recorded: increased toxicity
- Degradation of BRD4, combination with MDM2 ligand 8314 [3]: √ (A black check mark indicates efficacy of 30% to 70% or higher protein degradation)

SMILES: CCNC(=O)C[C@@H]1N=C(c2ccc(Cl)cc2)c2cc(OCCCCCCCNC(=O)c3ccc(B(O)O)cc3)ccc2-n2c(C)nnc21 [BRD-E78]
- loss of cellular viability (toxicity) versus monomers alone [4]: reduced viability; also recorded: increased toxicity
- Degradation of BRD4, combination with VHL ligand 8305 ([3]; Table 3, aryl-boronic acid BRD4 ligand + 8305): √ (A black check mark indicates efficacy of 30% to 70% or higher protein degradation)

SMILES: CCNC(=O)C[C@@H]1N=C(c2ccc(Cl)cc2)c2cc(OCCCCCCNC(=O)c3ccc(B(O)O)cc3)ccc2-n2c(C)nnc21 [BRD-E79, (4-((6-(((4S)-6-(4-chlorophenyl)-4-(2-(ethylamino)-2-oxoethyl)-1-methyl-4H-benzo[f][1,2,4]triazolo[4,3-a][1,4]diazepin-8-yl)oxy)hexyl)carbamoyl)phenyl)boronic acid]
- BRD4 degradation ([1]; co-treated 1:1 with CRBN ligand 8046, HeLa): causes degradation of BRD4; also recorded: Degradation is noted
- BRD4 degradation ([1]; co-treated 1:1 with CRBN ligand 8066, HeLa): causes degradation of BRD4; also recorded: Degradation is noted
- BRD4 degradation [2, 5]: caused BRD4 protein degradation at 1 and 10 μM; also recorded: Degradation of BRD4 is observed
- BRD4 degradation [2, 6]: no protein loss was observed
- Degradation of BRD4, combination with CRBN ligand 8046 ([3]; Table 1, aryl-boronic acid BRD4 ligand + 8046): √ (A black check mark indicates efficacy of 30% to 70% or higher protein degradation)
- Degradation of BRD4, combination with CRBN ligand 8047 [3]: √ (A black check mark indicates efficacy of 30% to 70% or higher protein degradation)
- Degradation of BRD4, combination with CRBN ligand 8066 ([3]; Table 1, aryl-boronic acid BRD4 ligand + 8066): √ (A black check mark indicates efficacy of 30% to 70% or higher protein degradation)
- Degradation of BRD4, combination with MDM2 ligand 8313 ([3]; Table 2, aryl-boronic acid BRD4 ligand + 8313): √ (A black check mark indicates efficacy of 30% to 70% or higher protein degradation)

SMILES: COc1ccc2c(c1)C(c1ccc(Cl)cc1)=N[C@@H](CC(=O)NCCCCCNC(=O)c1cccc(O)c1O)c1nnc(C)n1-2 [BRD-N8, N-(5-(2-((4S)-6-(4-chlorophenyl)-8-methoxy-1-methyl-4H-benzo[f][1,2,4]triazolo[4,3-a][1,4]diazepin-4-yl)acetamido)pentyl)-2,3-dihydroxybenzamide]
- loss of cellular viability (toxicity) ([4]; co-dosed 1:1 with CRBN ligand 8049, MV-4-11, 24 h, 1 nM-100 μM each): concentration-dependent loss in cellular viability; also recorded: increased toxicity
